Patent US20260242418A1, “CYCLIC PEPTIDES WITH ANTIBACTERIAL ACTIVITY AGAINST MULTIDRUG RESISTANT (MDR) PATHOGENS” (priority 2022, published 2026)
Read-outs that look alike come from different tables or passages of the source. Positions of bridges follow the written chain, without caps; N, C: chain ends. Non-standard residues stand in square brackets, D forms with d. Residues, ends and D or L forms follow the SMILES beside them. No end group written: not given here. dDab = NCC[C@@H](N)C(=O)O; Orn = NCCC[C@H](N)C(=O)O; Dab = NCC[C@H](N)C(=O)O

Key:
[1] = in vivo, iv; cited from earlier work
Acinetobacter baumannii = type: cell-based
Excerpt: (§1) Minimum Inhibitory Concentration (MIC) of a peptide of SEQ D NO: 4 (abbreviated PLP-3) and colistin against a collection of clinically relevant and commercially available bacterial strains was obtained via broth microdilution. The protocol for antimicrobial activity determination, detailed below, consisted in a modification of Clinical & Laboratory Standards Institute (CLSI) Guidelines.
(§2) MIC is the value defined as the lowest concentration of an antimicrobial, in these tests either PLP-3 or colistin, which inhibits the macroscopic growth of a bacterial strain after 18-22 h incubation at 37° C. The results from these assays are obtained via visual identification of the bacterial bottom at the end of the wells of the testing plate. Since the wells contain decreasing concentrations of the compounds, the final result is indicated as a concentration, MIC, expressed in μg/mL of the agent (in this case PLP-3 or colistin).
(§3) Bacterial strains were streaked in Columbia Agar plates (Columbia Agar with 5% Sheep Blood 90 mm Stacker plates, BD) and incubated overnight at 37° C. Polypropylene round bottomed 96-well plates were filled with 50 μL/well of Mueller-Hinton Broth (MHB, CM0405, 500 g, ThermoFisher Scientific™ Oxoid™) and 50 μL of either colistin or PLP-3 (at 4× the chosen initial concentration of the test) were added to the first well of each row of the plate followed by serial dilutions up until the 10th column of the plate.
(§4) Finally, strain inoculums were prepared by diluting 1:100 0.5 McFarland solutions in MHB. Plates were then inoculated with 50 μL of the inoculums and covered with film before 18 to 22 h incubation at 37 C.
(§5) Three biological and three technical replicates were performed per strain.
(§6) Broth microdilution testing of 15 strains of each species provided MIC50 and […] values (Table 4). Strains were either from clinical origin, relevant to current clinical situation, or commercially available strains belonging to the American Type Culture Collection (ATCC), namely: A. baumannii 17978 and 19606, K. pneumoniae 13883 and P. aeruginosa 27853.
(§7) This panel represents an example of relevant MDR, colistin resistant and colistin susceptible strains from which to compare results. The minimum inhibitory concentration (MIC) is the lowest concentration of a chemical, usually a drug, which prevents visible growth of a bacterium or bacteria. MIC50 represents the antimicrobial concentration value that inhibits the growth of 50% of the bacterial strains and […] of each species from the tested panel of strains. Being colistin both a peptide and a last-resource antibiotic, it was included in these assays for comparison against a commercially available antibiotic.

Klebsiella pneumoniae = type: cell-based
Excerpt: as §1, §2, §3, §4, §5, §6, §7

Pseudomonas aeruginosa = type: cell-based
Excerpt: as §1, §2, §3, §4, §5, §6, §7
P. aeruginosa ATCC 27853 strain (commercially available from the American Type Collection Culture) was used as control by performing MICs to colistin and PLP-3 in all broth microdilution assays

human cells = settings: cited from earlier work
[2] = panel of 15 A. baumannii strains
[3] = panel of 15 K. pneumoniae strains
[4] = panel of 15 P. aeruginosa strains

Compound: CC[C@H](C)[C@@H]1NC(=O)[C@H](Cc2c[nH]c3ccccc23)NC(=O)[C@H]([C@@H](C)O)NC(=O)[C@@H]2CCCN2C(=O)[C@H]2CCCN2C(=O)[C@H](CO)NC(=O)[C@H](C)NC(=O)[C@H](CCN)NC(=O)[C@H](CCN)NC(=O)[C@H](Cc2c[nH]c3ccccc23)NC(=O)[C@H](CCN)NC(=O)[C@@H](CCN)NC(=O)[C@H](CCCN)NC(=O)[C@H](CCN)NC1=O [Murepavadin, cyclo[Ala-Ser-D-Pro-Pro-Thr-Trp-Ile-Dab-Orn-D-Dab-Dab-Trp-Dab-Dab]] (cyclo(TWI[Dab][Orn][dDab][Dab]W[Dab][Dab]AS[dP]P))
- adverse finding in phase-III clinical trials [1]: kidney damage in over half of the patients

Compound: colistin [reference compound]
- MIC50 (Acinetobacter baumannii; [2]): 0,5 μg/mL
- MIC90 (Acinetobacter baumannii; [2]): 64 µg/mL
- MIC (Acinetobacter baumannii; strain 8* (MDR)): 0.5 µg/mL
- MIC (Acinetobacter baumannii; strain 19* (MDR)): 0.25 µg/mL
- MIC (Acinetobacter baumannii; strain 80* (MDR)): 0.5 µg/mL
- MIC (Acinetobacter baumannii; strain 174* (MDR)): 0.25 µg/mL
- MIC (Acinetobacter baumannii; strain 180* (MDR)): 0.5 µg/mL
- MIC (Acinetobacter baumannii; strain 210* (MDR)): 8 µg/mL
- MIC (Acinetobacter baumannii; strain 226* (MDR)): 0.25 µg/mL
- MIC (Acinetobacter baumannii; strain 253* (MDR)): 0.25 µg/mL
- MIC (Acinetobacter baumannii; strain 317): 0.25 µg/mL
- MIC (Acinetobacter baumannii; strain 383): 0.25 µg/mL
- MIC (Acinetobacter baumannii; strain 19606): 0.5 µg/mL
- MIC (Acinetobacter baumannii; strain ATCC 17978): 0.25 µg/mL
- MIC (Acinetobacter baumannii; strain CR17* (MDR)): >64 µg/mL
- MIC (Acinetobacter baumannii; strain CR49): 64 µg/mL
- MIC (Acinetobacter baumannii; strain CR86): 64 µg/mL
- MIC50 (Klebsiella pneumoniae; [3]): 8 µg/mL
- MIC90 (Klebsiella pneumoniae; [3]): >64 µg/mL
- MIC (Klebsiella pneumoniae; strain 145* (MDR)): 32 µg/mL
- MIC (Klebsiella pneumoniae; strain 398* (MDR)): >64 µg/mL
- MIC (Klebsiella pneumoniae; strain 545): 0.25 µg/mL
- MIC (Klebsiella pneumoniae; strain 674* (MDR)): 0.25 µg/mL
- MIC (Klebsiella pneumoniae; strain 681* (MDR)): >64 µg/mL
- MIC (Klebsiella pneumoniae; strain 716* (MDR)): 0.5 µg/mL
- MIC (Klebsiella pneumoniae; strain 741* (MDR)): 0.5 µg/mL
- MIC (Klebsiella pneumoniae; strain 851* (MDR)): 0.5 µg/mL
- MIC (Klebsiella pneumoniae; strain 994* (MDR)): >64 µg/mL
- MIC (Klebsiella pneumoniae; strain 1052* (MDR)): >64 µg/mL
- MIC (Klebsiella pneumoniae; strain 1078* (MDR)): 64 µg/mL
- MIC (Klebsiella pneumoniae; strain 1129* (MDR)): 0.5 µg/mL
- MIC (Klebsiella pneumoniae; strain 1478* (MDR)): >64 µg/mL
- MIC (Klebsiella pneumoniae; strain 1480* (MDR)): 0.25 µg/mL
- MIC (Klebsiella pneumoniae; strain ATCC 13883): 1 µg/mL
- MIC50 (Pseudomonas aeruginosa; [4]): 0,5 μg/mL
- MIC90 (Pseudomonas aeruginosa; [4]): 64 µg/mL
- MIC (Pseudomonas aeruginosa; strain 36a): ≤0.125 µg/mL
- MIC (Pseudomonas aeruginosa; strain 38a): 0.25 µg/mL
- MIC (Pseudomonas aeruginosa; strain ATCC 27853 (Table 2)): ≤0.125 µg/mL
- MIC (Pseudomonas aeruginosa; strain ATCC 27853, control in the A. baumannii panel (Table 1)): ≤0.125 µg/mL
- MIC (Pseudomonas aeruginosa; strain ATCC 27853, control in the K. pneumoniae panel (Table 3)): 0.25 µg/mL
- MIC (Pseudomonas aeruginosa; strain C1): 0.5 µg/mL
- MIC (Pseudomonas aeruginosa; strain C2): 1 µg/mL
- MIC (Pseudomonas aeruginosa; strain C3): 0.5 µg/mL
- MIC (Pseudomonas aeruginosa; strain C4): 0.5 µg/mL
- MIC (Pseudomonas aeruginosa; strain R1): >64 µg/mL
- MIC (Pseudomonas aeruginosa; strain R2): 64 µg/mL
- MIC (Pseudomonas aeruginosa; strain R3* (MDR)): 32 µg/mL
- MIC (Pseudomonas aeruginosa; strain S1): ≤0.125 µg/mL
- MIC (Pseudomonas aeruginosa; strain S2* (MDR)): ≤0.125 µg/mL
- MIC (Pseudomonas aeruginosa; strain S3): 0.5 µg/mL
- MIC (Pseudomonas aeruginosa; strain S4): ≤0.125 µg/mL
- MIC (Pseudomonas aeruginosa; strain S5): ≤0.125 µg/mL

Compound: RGGRLCYCRRRFCVCVGR (disulfide 8-13, 6-15; listed as Sus scrofa) [PG-1]
- haemolysis and toxicity against human cells (human cells): significant haemolysis and toxicity
